Laboratory results as given in patent publication US6784165B1, “Treatment of heart rhythm disturbances with N6-substituted-5′-(N-substituted) carboxamidoadenosines” (Aderis Pharmaceuticals, Inc., priority 1999, dated 2004).

Columns and labels:
[1] = tested on: guinea pig isolated heart; assay: Guinea pig isolated heart paced at 300-360 bpm: AV conduction interval versus coronary perfusate flow
Procedure: (§1) Guinea pig isolated hearts were prepared according to the methods described in Example 5. In the first portion of the experiment designed to determine the effect of heart rate on the negative dromotropic activity of Compound A, hearts were allowed to beat spontaneously or electrically paced either at 200 beats per minute (approximately 20% above the spontaneous rate) or at 300-360 beats per minute (approximately 80% above the spontaneous rate). Atrioventricular (AV) conduction interval (AV interval) was determined as the time from the atrial stimulus to the beginning of ventricular depolarization. The AV interval measurements were performed at each pacing rate with increased concentrations of Compound A as described in Example 5. Upon electrical pacing at 200 beats per minute, Compound A at a mean concentration of 3.9 nM produced a mean maximal 58% increase in AV interval, and heart block at a mean minimal concentration of 5.1 nM. […] The results are summarized in the table below, with data from spontaneously beating hearts included for comparative purposes:
In order to determine the differential potencies of Compound A for negative […] activity versus coronary vasodilation in paced hearts, a different set of experiments was conducted in which individual hearts were used to collect measurements for each action. Experimental conditions as described in Example 6 were used, with guinea pig isolated hearts being paced at 300-360 beats per minute. AV conduction interval was determined as described in Example 6. Coronary perfusate flow data was determined by measuring the volume of fluid leaving the heart. AV conduction interval data and coronary perfusate flow data were collected in the presence of increasing concentrations of Compound A. The results are shown in FIG. 3, with dose-related increases for both AV conduction interval and coronary perfusate flow. The differential for these effects is readily apparent. The mean concentration of Compound A that produced a maximal increase in AV conduction time was 0.76 nM.

[2] = tested on: guinea pig isolated heart; assay: Guinea pig isolated heart model of paroxsymal supraventricular tachycardia (200/300/200 bpm pacing)
Procedure: as §1
Using the experimental conditions described in Example 6, individual hearts were paced at 200 bpm for one minute followed abruptly by one minute of pacing at 300 bpm, after which the pacing rate was returned to 200 bpm. The 300 bpm pacing cycle was intended to simulate an episode of supraventricular tachycardia. This pacing sequence was conducted in the presence of vehicle and in the presence of increasing concentrations of Compound A. The results are expressed in FIG. 2. Compound A, at a mean concentration of 2 nM that had little effect on AV interval at 200 bpm induced AV block within 30 seconds during the 300 bpm episode.

adenosine A1 receptor = target: T1, adenosine A1 receptor (Rattus norvegicus, UniProt P25099); assay: Peak bradycardia after bolus intravenous injection in conscious rats; format: in vivo; set-up: from tissue; host or cells: whole animal (conscious Sprague-Dawley rats); conditions: rat, bolus intravenous injections, read-out: ED50
T1 sequence (P25099 1-326): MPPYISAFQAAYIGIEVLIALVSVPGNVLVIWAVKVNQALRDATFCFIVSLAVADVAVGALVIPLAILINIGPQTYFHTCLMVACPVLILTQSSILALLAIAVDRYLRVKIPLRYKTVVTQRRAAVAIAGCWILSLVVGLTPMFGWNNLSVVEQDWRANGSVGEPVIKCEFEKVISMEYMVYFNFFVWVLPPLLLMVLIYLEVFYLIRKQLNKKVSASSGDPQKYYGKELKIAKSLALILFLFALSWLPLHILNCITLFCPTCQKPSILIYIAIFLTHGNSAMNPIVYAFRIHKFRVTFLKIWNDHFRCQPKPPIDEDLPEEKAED
Source text: Concentration dose-effect curve data were fitted to a sigmoid curve using Graphpad PRIZM™ software to obtain the concentration or dose of test compound that produces 50% of the maximal obtainable response, in vitro EC50 or in vivo ED50 values, for activation of the adenosine A1 receptor. Responses measured to each dose were the plateau negative inotropic response to cumulative additions of test compound in the isolated left atria and the peak bradycardia in response to bolus intravenous injections of test compound in conscious rats. Oral bioavailability was estimated from pharmacodynamic responses using the expression: (Response AUCoral/Response AUCiv)(Doseiv/Doseoral), where Response AUC is the area under the curve for test compound-induced bradycardia over time.
Male Sprague-Dawley rats were anesthetized with sodium pentobarbital 50 mg/kg i.p., and indwelling catheters were surgically implanted in the carotid artery and jugular vein two days prior to each experiment. During all subsequent experiments, rats were conscious and unrestrained. The carotid artery cannula was attached to a pressure transducer and blood pressure was recorded continuously throughout each experiment using a Grass polygraph. Heart rate was derived from the blood pressure signal using a Grass tachygraph. The measured parameters were allowed from 30 to 90 minutes to stabilize before the administration of test compound.
Test compounds were administered either by oral gavage using a curved, bulbed oral dosing cannula, or by intravenous administration via the jugular vein indwelling catheter. Rats dosed orally were fasted overnight before dosing, with water available ad libitum. Because the heart rate responses following intravenous administration of test compound rapidly returned to baseline, more than one dose of test compound could be administered to each rat. However, the responses to oral administration of test compounds were of a prolonged duration and therefore only a single dose could be administered to each rat.

[3] = tested on: guinea pig isolated spontaneously beating heart; assay: Guinea pig isolated spontaneously beating heart (Langendorff): heart rate and AV interval
Procedure: Guinea pig isolated hearts were prepared according to the method of Langendorff in which the coronary vasculature was perfused in a retrograde fashion at constant pressure via the aorta. Compound A was administered to the spontaneously beating hearts by infusion into the perfusion line supplying buffer to the coronary vasculature. The concentration of Compound A was adjusted by changes in the infusion rate and/or changes in the concentration of infusion solutions. The concentration of Compound A present in the perfusate was calculated by dividing the rate of Compound A infused by the coronary flow rate. Spontaneously beating heart rate and AV interval were recorded.

[4] = paced at 300-360 beats per minute
[5] = heart rate spontaneous (appro. 170 bpm)
[6] = spontaneously beating guinea pig heart

CCNC(=O)[C@H]1O[C@@H](n2cnc3c(NC4CCCC4)ncnc32)[C@H](O)[C@@H]1O [Compound A, ethyl N^6-cyclopentyladenosine-5′-uronamide]
EC50 ([1]; Cavia porcellus, paced at 300-360 beats per minute, read-out: EC50 for increase in coronary perfusate flow): 32 nM
mean coronary perfusate flow rate reached ([1]; increase from a mean flow rate of 8.5 mL/min, paced at 300-360 bpm): 14.2 mL/min
mean concentration producing heart block [1, 4]: 1.09 nM
mean concentration that produced a maximal increase in AV conduction time [1, 4]: 0.76 nM
potency at slowing AV conduction versus increasing coronary perfusate flow [1, 4]: greater than 40 fold
mean maximal increase in AV interval ([1]; paced at 300-360 beats per minute, at 0.76 nM): 23%
effect on AV interval at 200 bpm pacing ([2]; 2 nM, 200 bpm pacing before the episode): little effect
time to AV block during the 300 bpm episode ([2]; 2 nM, 300 bpm pacing): ≤ 30 s
AV interval when pacing was returned to 200 bpm ([2]; 2 nM, after the 300 bpm episode): returned to near normal values
mean concentration inducing AV block during the 300 bpm pacing episode ([2]; PSVT model, 300 bpm episode): 2 nM
ED50 (adenosine A1 receptor): 0.0083 µmol/kg
EC50 ([3]; Cavia porcellus, spontaneously beating guinea pig heart, read-out: EC50 for decrease in heart rate): 3.2 nM
Mean Concentration of Compound A Required to Produce Maximal AV Interval [3, 5]: 11.7 nM
Mean Minimal Concentration of Compound A Required to Produce Heart Block [3, 5]: 13 nM
maximal decrease in heart rate [3, 6]: 58%
maximal increase in AV interval over basal values [3, 6]: 34%
